We go through twelve compounds from ChEMBL document CHEMBL3991950, “Imidazolidinedione derivatives” (2011).

The structures appear in SMILES notation. Calls of active or inactive are those of the source.

The subject of data set [1] is Mus musculus. In words: Reduction in amphetamine-induced hyperactivity in CD1 mouse assessed as reduction in amphetamine-induced increase in total distance travelled at 3 mg/kg, ip pretreated with compound 30 mins before amphetamine challenge and measured over 60 mins post amphetamine challenge. The class given is functional, organism-based.
Data set [2] has as its system Mus musculus. Nature of the data set: Reduction in amphetamine-induced hyperactivity in CD1 mouse assessed as amphetamine-induced increase in total distance travelled at 3 mg/kg, ip pretreated with compound 30 mins before amphetamine challenge and measured over 60 mins post amphetamine challenge (reference value: 16304 +/- 3309 cm). It counts as functional.
Data set [3] deals with Mus musculus. In words: Reduction in amphetamine-induced hyperactivity in CD1 mouse assessed as reduction in amphetamine-induced increase in total distance travelled at 60 mg/kg, po pretreated with compound 30 mins before amphetamine challenge and measured over 60 mins post amphetamine challenge. It counts as functional, organism-based.
Data set [4] deals with Rattus norvegicus. Nature of the data set: Increase in threshold for tonic hindlimb extensor seizures in CD rat model of electroshock seizure at 60 mg/kg, po relative to untreated control. It counts as functional.
In data set [5] the test system is Callithrix jacchus. In words: Sedative or hypnotic effect in marmoset assessed as reduction in number of animal jumps at 1 and 3 mg/kg, po dosed 2 hrs before test and measured over 2 mins post dose. It counts as functional, organism-based.
Data set [6] concerns the target T1, Voltage-gated potassium channel KCNC2 (Homo sapiens) (UniProt Q96PR1).
T1 sequence (whole entry): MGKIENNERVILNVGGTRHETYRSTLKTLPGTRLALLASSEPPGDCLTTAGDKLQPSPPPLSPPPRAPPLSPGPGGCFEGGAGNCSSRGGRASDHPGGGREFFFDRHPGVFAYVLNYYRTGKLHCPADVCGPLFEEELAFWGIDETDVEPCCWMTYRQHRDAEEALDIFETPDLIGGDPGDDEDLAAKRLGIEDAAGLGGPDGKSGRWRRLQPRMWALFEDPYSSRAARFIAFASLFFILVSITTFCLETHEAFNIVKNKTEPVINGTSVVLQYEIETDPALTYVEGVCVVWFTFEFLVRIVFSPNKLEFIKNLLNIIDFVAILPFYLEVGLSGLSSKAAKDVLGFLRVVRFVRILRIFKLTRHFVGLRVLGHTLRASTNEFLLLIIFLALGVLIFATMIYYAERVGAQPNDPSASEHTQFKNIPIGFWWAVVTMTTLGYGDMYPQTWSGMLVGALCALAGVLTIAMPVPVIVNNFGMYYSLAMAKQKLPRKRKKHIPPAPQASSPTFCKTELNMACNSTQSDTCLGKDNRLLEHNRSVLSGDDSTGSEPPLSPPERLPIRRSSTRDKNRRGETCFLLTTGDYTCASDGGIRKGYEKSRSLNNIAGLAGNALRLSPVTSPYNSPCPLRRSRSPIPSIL
Nature of the data set: Modulation activity at human recombinant Kv3.2 expressed in CHOK1 cells assessed as potentiation of whole-cell currents by measuring activation time at 6.25 uM at -70 mV holding potential incubated for 3 mins by lonWorks Quattro system based electrophysiology assay (reference value: 7.1 ms).

Data set [7] has as its system Callithrix jacchus. In words: Effect on animal postures in marmoset at 1 and 3 mg/kg, po dosed 2 hrs before test and measured over 2 mins post dose. The class given is ADME, organism-based. Particulars: in vivo.
Data set [8] addresses T1, Voltage-gated potassium channel KCNC2 (Homo sapiens). In words: Positive modulation activity at human recombinant Kv3.2 expressed in CHOK1 cells assessed as effect on activation time at -70 mV holding potential incubated for 3 mins by lonWorks Quattro system based electrophysiology assay (reference value: 7.1 ms). The class given is cell-based.
Data set [9] has as its system Mus musculus. Nature of the data set: Reduction in amphetamine-induced hyperactivity in CD1 mouse assessed as amphetamine-induced increase in total distance travelled at 10 mg/kg, po pretreated with compound 30 mins before amphetamine challenge and measured over 60 mins post amphetamine challenge (reference value: 16304 +/- 3309 cm). It counts as functional.
The species named for data set [10] is Mus musculus. In words: Modulation activity at Kv3 channel-mediated firing activity of parvalbumin-positive interneurons isolated form somatosensory cortex of transgenic [CB6-Tg (Gad1-EGFP) G42Zjh/J] mouse assessed as reduction in 0.5 mM TEA-induced action potential half-width at 1 uM incubated for 1 hr at resting potential of -80 mV by electrophysiology assay.

In data set [11] the target is T1, Voltage-gated potassium channel KCNC2 (Homo sapiens). Nature of the data set: Modulation activity at human recombinant Kv3.2 expressed in CHOK1 cells assessed as potentiation of whole-cell currents at 25 uM at -70 mV holding potential incubated for 3 mins by lonWorks Quattro system based electrophysiology assay.
The subject of data set [12] is Mus musculus. In words: Reduction in amphetamine-induced hyperactivity in CD1 mouse assessed as reduction in amphetamine-induced increase in total distance travelled at 30 mg/kg, po pretreated with compound 30 mins before amphetamine challenge and measured over 60 mins post amphetamine challenge. The class given is functional, organism-based.
The test system of data set [13] is Rattus norvegicus. In words: Increase in threshold for tonic hindlimb extensor seizures in CD rat model of electroshock seizure at 30 mg/kg, po relative to untreated control. It counts as functional.
Data set [14] concerns the target T1, Voltage-gated potassium channel KCNC2 (Homo sapiens). In words: Modulation activity at human recombinant Kv3.2 expressed in CHOK1 cells assessed as potentiation of whole-cell currents at 6.3 uM at -70 mV holding potential incubated for 3 mins by lonWorks Quattro system based electrophysiology assay.
The target of data set [15] is T2, Voltage-gated potassium channel KCNC1 (Mus musculus) (UniProt P15388).
T2 sequence (whole entry): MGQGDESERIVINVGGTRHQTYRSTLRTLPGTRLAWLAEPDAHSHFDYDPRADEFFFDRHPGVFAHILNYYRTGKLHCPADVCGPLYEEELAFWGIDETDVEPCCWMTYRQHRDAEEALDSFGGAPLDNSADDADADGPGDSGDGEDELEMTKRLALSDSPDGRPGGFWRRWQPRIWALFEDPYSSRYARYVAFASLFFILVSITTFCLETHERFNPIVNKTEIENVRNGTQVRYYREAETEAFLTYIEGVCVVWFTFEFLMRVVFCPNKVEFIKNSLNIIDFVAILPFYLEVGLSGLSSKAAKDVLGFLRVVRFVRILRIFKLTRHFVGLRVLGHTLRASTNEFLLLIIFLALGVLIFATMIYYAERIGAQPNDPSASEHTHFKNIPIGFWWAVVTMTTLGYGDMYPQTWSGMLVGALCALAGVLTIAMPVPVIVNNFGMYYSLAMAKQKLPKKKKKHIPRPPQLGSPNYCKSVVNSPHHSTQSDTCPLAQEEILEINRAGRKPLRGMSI
In words: Modulation activity at Kv3.1 channel-mediated potassium currents in neurons isolated from medial nucleus of trapezoid body in CBA/Ca mouse assessed as reversal of TEA-induced reduction in voltage steps to +40 mV-evoked amplitude of outward high voltage-activated potassium currents at 10 uM at resting potential of -60 mV incubated for 5 mins by electrophysiology assay.

Data set [16] is filed under the species Mus musculus. In words: Modulation activity at Kv3 channel-mediated firing activity of parvalbumin-positive interneurons isolated form somatosensory cortex of transgenic [CB6-Tg (Gad1-EGFP) G42Zjh/J] mouse assessed as reduction in 0.5 mM TEA-induced action potential half-width at 10 uM incubated for 1 hr at resting potential of -80 mV by electrophysiology assay.

Data set [17] has as its system Callithrix jacchus. Nature of the data set: Effect on absolute power in alpha band in common marmoset at 0.3 to 3 mg/kg, po by electroencephalography analysis. It counts as ADME, organism-based. Particulars: in vivo.
The subject of data set [18] is Callithrix jacchus. Nature of the data set: Antipsychotic-like activity in common marmoset assessed as induction of increase in absolute power in delta band at 1 mg/kg, po measured at 30 mins by electroencephalography analysis. It counts as functional, organism-based.
The target in data set [19] is T1, Voltage-gated potassium channel KCNC2 (Homo sapiens). In words: Modulation activity at human recombinant Kv3.2 expressed in CHOK1 cells assessed as potentiation of whole-cell currents by measuring activation time at 12.5 uM at -70 mV holding potential incubated for 3 mins by lonWorks Quattro system based electrophysiology assay (reference value: 7.1 ms).
Data set [20] concerns Callithrix jacchus. Nature of the data set: Antipsychotic-like activity in common marmoset assessed as induction of increase in theta band power at 3 mg/kg, po measured at 60 mins by electroencephalography analysis. The class given is functional, organism-based.
Data set [21] has as its system Callithrix jacchus. In words: Antipsychotic-like activity in common marmoset assessed as induction of increase in absolute power in delta band at 3 mg/kg, po measured between 30 and 120 mins by electroencephalography analysis. The class given is functional, organism-based.
The subject of data set [22] is Callithrix jacchus. Nature of the data set: Antipsychotic-like activity in common marmoset assessed as induction of reduction in power in beta band at 1 mg/kg, po measured at 30 mins by electroencephalography analysis. It counts as functional, organism-based.
For data set [23], the system named is Rattus norvegicus. In words: Increase in threshold for tonic hindlimb extensor seizures in CD rat model of electroshock seizure at 300 mg/kg, po relative to untreated control. It counts as functional.
In data set [24] the target is T1, Voltage-gated potassium channel KCNC2 (Homo sapiens). In words: Negative modulation activity at human recombinant Kv3.2 expressed in CHOK1 cells assessed as effect on activation time at -70 mV holding potential incubated for 3 mins by lonWorks Quattro system based electrophysiology assay. The class given is cell-based.
Data set [25] has the same target. In words: Modulation activity at human recombinant Kv3.2 expressed in CHOK1 cells assessed as potentiation of whole-cell currents by measuring activation time at 0.2 uM at -70 mV holding potential incubated for 3 mins by lonWorks Quattro system based electrophysiology assay.
For data set [26] the target is unchanged. In words: Modulation activity at human recombinant Kv3.2 expressed in CHOK1 cells assessed as potentiation of whole-cell currents by measuring activation time at 3.1 uM at -70 mV holding potential incubated for 3 mins by lonWorks Quattro system based electrophysiology assay (reference value: 7.1 ms).
The target is the same in data set [27]. In words: Modulation activity at human recombinant Kv3.2 expressed in CHOK1 cells assessed as potentiation of whole-cell currents by measuring activation time at 0.8 uM at -70 mV holding potential incubated for 3 mins by lonWorks Quattro system based electrophysiology assay (reference value: 7.1 ms).
For data set [28] the target is unchanged. Nature of the data set: Modulation activity at human recombinant Kv3.2 expressed in CHOK1 cells assessed as potentiation of whole-cell currents by measuring activation time at 0.4 uM at -70 mV holding potential incubated for 3 mins by lonWorks Quattro system based electrophysiology assay (reference value: 7.1 ms).

Take `CN1CCN(C2=Nc3cc(Cl)ccc3Nc3ccccc32)CC1` [CLOZAPINE]: the outcome in the data set on Mus musculus [1] was Active. In addition, the Activity in the data set with Mus musculus [2] was found to be 932 cm.
Turning to `CC[C@H]1NC(=O)N(c2ccc(Oc3ccc(C)c(OC)c3)nc2)C1=O`, the outcome (in the data set with Mus musculus [3]; with Callithrix jacchus [5]; in data set [8]; in [11]; in the data set on Mus musculus [12]; in data set [14]) was Active. Also, the result in data set [15] was Active. Besides, the Activity is 218% with Rattus norvegicus [4], “Non-Toxic” in the data set on Callithrix jacchus [7], 15267 cm in the data set on Mus musculus [9] and 91% in the data set on Rattus norvegicus [13]. Besides, the TIME in data set [6] is 2.75e-06 h. The inhibition in the data set filed under Mus musculus [10] turned out to be 24%; in the data set filed under Mus musculus [16], 36%.
Turning to `CC[C@@]1(C)NC(=O)N(c2ccc(Oc3ccc(C)c(OC)c3)nc2)C1=O`, the Activity entry with Callithrix jacchus [17] is on record as “Non-Toxic”. The outcome (in the data set on Callithrix jacchus [18]; in data set [8]; in the data set with Callithrix jacchus [20]; in the data set on Callithrix jacchus [21]; in the data set on Callithrix jacchus [22]) was Active. The TIME in data set [19] was determined as 2.03e-06 h.
Take `CCCC(CCC)C(=O)[O-].[Na+]` [VALPROATE SODIUM]: the Activity with Rattus norvegicus [23] is listed as 258%.
As to `CC[C@H]1NC(=O)N(c2ccc(Oc3ccc(C#N)cc3C(C)(C)C)nc2)C1=O`, the inhibition result in [24] was “Active”. Further, in data set [25], the TIME stood at 6.39e-06 h.
Regarding `CC[C@H]1NC(=O)N(c2ccc(Oc3ccc(C#N)cc3C3CC3)nc2)C1=O`, the result in [8] was Active. The TIME in data set [26] amounted to 3.61e-06 h.
As to `CCc1cc(Oc2ccc(N3C(=O)N[C@H](CC)C3=O)cn2)ccc1C#N`, in data set [26], the TIME was found to be 2.28e-06 h.
As to `CC[C@H]1NC(=O)N(c2ccc(Oc3ccc(C#N)c(C4CC4)c3)nc2)C1=O`, the outcome in data set [8] was Active. For the same compound, in data set [26], the TIME was 2.11e-06 h.
For `CC[C@H]1NC(=O)N(c2ccc(Oc3ccc(C#N)c(C(C)C)c3)nc2)C1=O`, the TIME in data set [27] came to 2.56e-06 h. Moreover, in [8], the result was Active.
`CC1(C)NC(=O)N(c2ccc(Oc3cccc4c3C3(CC3)CO4)nc2)C1=O`: in [28], the TIME amounted to 5.36e-06 h. For the same compound, in data set [24], the inhibition entry was “Active”.
On to `CC[C@H]1NC(=O)N(c2ccc(Oc3ccc(C#N)c(OC(C)C)c3)nc2)C1=O`, for which, in [26], the TIME turned out to be 2.69e-06 h.
Take `CC[C@H]1NC(=O)N(c2ccc(Oc3ccc(C#N)c(OC(F)(F)F)c3)nc2)C1=O`: in data set [26], the TIME turned out to be 2.89e-06 h.
